Assay in all cases: NCI-60 one-dose screening
What all share (format): cell-based

One experiment relates to HT29. To be noted: Homo sapiens, HT-29, HT29, Colon Cancer, read-out: GI (%).
A further experiment relates to MDA-MB-231/ATCC. To be noted: Homo sapiens, Breast Cancer, read-out: GI (%).
The test system of another experiment is SR. As to conditions: Homo sapiens, Leukemias, read-out: GI (%).
The next experiment concerns SF-295. As to conditions: Homo sapiens, SF-295, CNS Cancer, read-out: GI (%).
The test system of the next experiment is NCI-H322M. To be noted: Homo sapiens, Non-Small Cell Lung Cancer, read-out: GI (%).
The subject of another experiment is SK-OV-3. As to conditions: Homo sapiens, SK-OV-3, Ovarian Cancer, read-out: GI (%).
The next experiment concerns M14. To be noted: Homo sapiens, M14, Melanoma, read-out: GI (%).
Another experiment deals with HOP-62. To be noted: Homo sapiens, HOP-62, Non-Small Cell Lung Cancer, read-out: GI (%).
A further experiment relates to SNB-75. As to conditions: Homo sapiens, SNB-75, CNS Cancer, read-out: GI (%).
For another experiment, the system named is 786-0. As to conditions: Homo sapiens, 786-0, Renal Cancer, read-out: GI (%).
The next experiment has as its system OVCAR-4. To be noted: Homo sapiens, OVCAR-4, 10 μM; OVCAR-4, Ovarian Cancer; read-out: GI (%).
The test system of another experiment is A549/ATCC. As to conditions: Homo sapiens, Non-Small Cell Lung Cancer, read-out: GI (%).
A further experiment concerns A498. As to conditions: Homo sapiens, A498, Renal Cancer, read-out: GI (%).
In another experiment the test system is COLO 205. To be noted: Homo sapiens, COLO 205, Colon Cancer, read-out: GI (%).
In a further experiment the test system is UACC-62. As to conditions: Homo sapiens, UACC-62, Melanoma, read-out: GI (%).
The subject of a further experiment is SF-539. As to conditions: Homo sapiens, SF-539, CNS Cancer, read-out: GI (%).
Another experiment concerns SK-MEL-2. To be noted: Homo sapiens, SK-MEL-2, Melanoma, read-out: GI (%).
The subject of a further experiment is HOP-92. As to conditions: Homo sapiens, HOP-92, Non-Small Cell Lung Cancer, read-out: GI (%).
Another experiment concerns ACHN. To be noted: Homo sapiens, Renal Cancer, read-out: GI (%).
The next experiment concerns SW-620. To be noted: Homo sapiens, SW-620, Colon Cancer, read-out: GI (%).
The subject of another experiment is T-47D. To be noted: Homo sapiens, T47D, Breast Cancer, read-out: GI (%).
In the next experiment the test system is HCT-116. As to conditions: Homo sapiens, HCT-116, Colon Cancer, read-out: GI (%).
The next experiment relates to CAKI-1. As to conditions: Homo sapiens, CAKI-1, Renal Cancer, read-out: GI (%).
Another experiment has as its system BT-549. As to conditions: Homo sapiens, BT-549, Breast Cancer, read-out: GI (%).
Another experiment relates to RXF 393. To be noted: Homo sapiens, RXF 393, Renal Cancer, read-out: GI (%).

Data on six molecules can be found in PMC9948168, “Vanillin-Based Indolin-2-one Derivative Bearing a Pyridyl Moiety as a Promising Anti-Breast Cancer Agent via Anti-Estrogenic Activity” (ACS Omega, 2023).

For `COc1cc(/C=C2/C(=O)Nc3ccc(Cl)cc32)ccc1OCc1ccccc1` [6f], the inhibition at 10 µM with HT29 was -2.07%; in the experiment on MDA-MB-231/ATCC, 7.87%; in the experiment with SR it was -9.47%; with SF-295 it was -0.63%; in the experiment with NCI-H322M it was 2.56%; in the experiment on SK-OV-3, -9.53%. Besides, the inhibition at 10 µM with M14 is 0.98%; with HOP-62, 6.15%; in the experiment with SNB-75, 7.95%; with 786-0 it was -3.53%; with OVCAR-4, -6.85%; with A549/ATCC, -0.72%. Also, the inhibition at 10 µM is -2.34% with A498; -7.79% in the experiment on COLO 205; 11.5% in the experiment on UACC-62; 2.76% in the experiment with SF-539; -0.03% in the experiment with SK-MEL-2; 6.71% in the experiment on HOP-92. The inhibition at 10 µM was 3.68% in the experiment on ACHN; 4.03% with SW-620; 5.17% with T-47D; -13% in the experiment with HCT-116; 7.2% in the experiment on CAKI-1; -5.93% in the experiment on BT-549. In addition, the inhibition at 10 µM in the experiment on RXF 393 was -11.6%.
Take `COc1cc(C=C2C(=O)Nc3ccccc32)ccc1O` (mixture of isomers) [5a]: the inhibition at 10 µM is -1.86% with HT29; 33.7% in the experiment on MDA-MB-231/ATCC; 36% in the experiment with SR; 7.71% in the experiment with SF-295; 19.5% with NCI-H322M; 5.29% in the experiment on SK-OV-3. For the same molecule, the inhibition at 10 µM was 23.5% with M14; 20.7% in the experiment on HOP-62; 50.6% in the experiment on SNB-75; -0.72% with 786-0; 18.2% with OVCAR-4; 3.48% in the experiment on A549/ATCC. The inhibition at 10 µM with A498 was 2.96%; with COLO 205 it was -13.8%; with UACC-62, 34.6%; in the experiment with SF-539, 22.6%; in the experiment on SK-MEL-2, 7.03%; in the experiment on HOP-92, 35%. For the same molecule, the inhibition at 10 µM in the experiment on ACHN is 22.8%; in the experiment on SW-620, -0.49%; in the experiment on T-47D, 31.6%; in the experiment with HCT-116, 24.2%; in the experiment with CAKI-1 it was 36%; with BT-549, 25.6%. Moreover, the inhibition at 10 µM in the experiment with RXF 393 is -6.54%.
Take `COc1cc(/C=C2/C(=O)Nc3cc(Cl)ccc32)ccc1O` [5c]: the inhibition at 10 µM was -0.03% in the experiment with HT29; 50.8% in the experiment with MDA-MB-231/ATCC; 43.3% in the experiment on SR; 15.8% in the experiment with SF-295; 15.7% in the experiment on NCI-H322M; 2.42% in the experiment on SK-OV-3. In addition, the inhibition at 10 µM amounted to 21.2% in the experiment on M14; 29.2% with HOP-62; 59.5% in the experiment on SNB-75; 2.08% in the experiment with 786-0; 25.4% in the experiment on OVCAR-4; 5.44% in the experiment on A549/ATCC. For the same molecule, the inhibition at 10 µM in the experiment on A498 is 11.1%; with COLO 205 it was -7.08%; in the experiment with UACC-62 it was 41.5%; with SF-539, 39.8%; in the experiment on SK-MEL-2, 7.35%; in the experiment on HOP-92, 24.8%. The inhibition at 10 µM in the experiment with ACHN is 23.6%; in the experiment with SW-620 it was 3.92%; with T-47D it was 49.2%; in the experiment with HCT-116, 30.9%; in the experiment with CAKI-1 it was 31.6%; with BT-549, 23.8%. For the same molecule, in the experiment with RXF 393, the inhibition at 10 µM stood at 6.84%.
As to `COc1cc(/C=C2/C(=O)Nc3ccccc32)ccc1OCc1ccc(F)cc1` [6c], the inhibition at 10 µM in the experiment on HT29 is -4.59%; in the experiment with MDA-MB-231/ATCC, -0.03%; in the experiment on SR it was 9.9%; in the experiment on SF-295, -1.97%; in the experiment with NCI-H322M it was -3.28%; with SK-OV-3, -14.1%. Also, the inhibition at 10 µM in the experiment on HOP-62 is -0.35%; in the experiment on SNB-75, -5.65%; in the experiment with 786-0, -6.73%; in the experiment with OVCAR-4, -2.67%; in the experiment with A549/ATCC, -7.83%; in the experiment on A498 it was 10.8%. Further, the inhibition at 10 µM was -11.2% in the experiment on COLO 205; 7.29% in the experiment on UACC-62; -2.09% in the experiment with SF-539; -7.35% in the experiment on SK-MEL-2; 0.18% in the experiment on HOP-92; -2.09% in the experiment with ACHN. In addition, the inhibition at 10 µM in the experiment on SW-620 is -5.55%; in the experiment on T-47D, -6.65%; in the experiment with HCT-116, -6.72%; in the experiment on BT-549, -15.7%.
`COc1cc(C=C2C(=O)Nc3cc(Cl)ccc32)ccc1OCc1ccc(Cl)cc1` (mixture of isomers) [6l]: the inhibition at 10 µM with HT29 was -5.54%; in the experiment with MDA-MB-231/ATCC it was 8.37%; in the experiment with SR, 4.64%; in the experiment with SF-295, 2.01%; in the experiment with NCI-H322M it was 4.89%; with SK-OV-3, -0.69%. Also, the inhibition at 10 µM in the experiment on HOP-62 is 4.49%; in the experiment on SNB-75, -3.14%; in the experiment on 786-0, -7.1%; in the experiment with OVCAR-4 it was 25.6%; with A549/ATCC, -5.86%; in the experiment with A498 it was 5.41%. The inhibition at 10 µM in the experiment with COLO 205 was -13.1%; in the experiment with UACC-62, 11.1%; in the experiment with SF-539, 8.46%; in the experiment on SK-MEL-2 it was -8.37%; with HOP-92 it was 15.3%; with ACHN, 7.13%. Also, the inhibition at 10 µM in the experiment with SW-620 was 2.57%; in the experiment on T-47D it was 14.8%; in the experiment on HCT-116, 5.08%; in the experiment on BT-549, 6.99%.
As to `COc1cc(/C=C2/C(=O)Nc3cc(Cl)ccc32)ccc1OCc1ccc(F)cc1` [6m], the inhibition at 10 µM with HT29 was -5.1%; in the experiment on MDA-MB-231/ATCC, 7.87%; in the experiment with SR, 2.45%; in the experiment with SF-295, 2.87%; with NCI-H322M it was 1.78%; in the experiment with SK-OV-3, 2.75%. Further, the inhibition at 10 µM is 4.08% in the experiment on HOP-62; -4.47% in the experiment on SNB-75; -7.88% with 786-0; 16.8% with OVCAR-4; -9.5% with A549/ATCC; 5.75% with A498. Also, the inhibition at 10 µM in the experiment with COLO 205 was -10.2%; in the experiment with UACC-62, 11.2%; with SF-539, 4.99%; in the experiment on SK-MEL-2, 0.15%; with HOP-92, 10.8%; with ACHN, 6.43%. Moreover, the inhibition at 10 µM came out at 1.76% in the experiment on SW-620, 5.94% in the experiment with T-47D, 7.12% with HCT-116 and 4.26% in the experiment with BT-549.
